Results reported in BindingDB's records for doi:10.1021/jm060108a (University of Liège, 2006).

Assay: Inhibition of U46619-induced platelet aggregation
`CCCCCNC(=O)NS(=O)(=O)c1cc([N+](=O)[O-])ccc1Nc1ccc(C)cc1` showed an IC50 of 0.278 µM.
For `Cc1ccc(Nc2ccc([N+](=O)[O-])cc2S(=O)(=O)NC(=O)NC(C)(C)C)cc1` [BM 573], the IC50 was 0.24 µM.
In the case of `Cc1ccc(Nc2ccc([N+](=O)[O-])cc2S(=O)(=O)NC(=O)N2CCCCC2)cc1` [N-[2-(4-methylphenylamino)-5-nitrobenzenesulfonyl]-piperidine-1-carboxamide], the IC50 is reported as 0.9 µM.
`CCCCCNC(=O)NS(=O)(=O)c1cc([N+](=O)[O-])ccc1Oc1ccc(C)cc1` [N-n-pentyl-N'-[2-(4-methylphenoxy)-5-nitrobenzenesulfonyl]urea] showed an IC50 of 0.67 µM.
Compound `Cc1cccc(C)c1Nc1ccc([N+](=O)[O-])cc1S(=O)(=O)NC(=O)NC(C)(C)C` [N-tert-butyl-N'-[2-(2,6-dimethylphenylamino)-5-nitrobenzenesulfonyl]urea] has an IC50 of 0.09 µM.
Work on `Cc1ccc(Oc2ccc([N+](=O)[O-])cc2S(=O)(=O)NC(=O)NC(C)(C)C)cc1` [N-tert-butyl-N'-[2-(4-methylphenoxy)-5-nitrobenzenesulfonyl]urea] yielded an IC50 of 0.3 µM.
For `Cc1ccc(Sc2ccc([N+](=O)[O-])cc2S(=O)(=O)NC(=O)NC(C)(C)C)cc1` [N-tert-butyl-N'-[2-(4-methylphenylthio)-5-nitrobenzenesulfonyl]urea], the IC50 was 0.8 µM.
